Earlier results, collected in patent US7282218B2, “pH sensitive polymer for inhibiting transformation in drugs” (Council of Scientific and Industrial Research, priority 2003, dated 2007).

How the values were obtained:
[1] = humans
[2] = amorphous vs crystalline

Row | bioavailability [1] | solubility of amorphous form relative to the crystalline form [2] [times] | SMILES
1 | 32-50% |  | CO/N=C(\C(=O)N[C@@H]1C(=O)N2C(C(=O)OC(C)OC(C)=O)=C(COC(N)=O)CS[C@H]12)c1ccco1 (some centres unmarked) [Cefuroxime axetil]
2 |  | 10 | CO[C@@H]1[C@@H](OC(N)=O)[C@@H](O)[C@H](Oc2ccc3c(O)c(NC(=O)c4ccc(O)c(CC=C(C)C)c4)c(=O)oc3c2C)OC1(C)C [novobiocin]
